Several values for one entry are separate records, joined by “and”; a condition that tells them apart may be missing. Identical values can stand only once. Like-named read-outs stand apart in the source and are kept apart here.
How the values were obtained:
[1] = Cold pressor test in healthy volunteers; type: in vivo, human; details: 3-60 mg single oral doses versus placebo; hand immersion duration and VAS pain score
Protocol: Analgesic effect was assessed based on duration of hand immersion in ice water and on visual analog scale (VAS) pain scores upon hand removal from the water bath.
Safety and tolerability of noribogaine were tested in the group of volunteers from Example 1. Cold pressor testing was conducted in 1° C. water according to the method of Mitchell et al. (J Pain 5:233-237, 2004) pre-dose, 6, 24, 48, 72 and 216 hours post-dosing. Safety evaluations included clinical monitoring, recording of adverse events (AEs), safety laboratory tests, vital signs, ECG telemetry from −2 h to 6 h after dosing, and 12-lead electrocardiograms (ECGs) up to 216 hours post-dosing.

[2] = Time to resumption of opioid substitution treatment and withdrawal scales (COWS, SOWS, OOWS); type: in vivo, human
calf OPRM = calf OPRM (Bos taurus, UniProt P79350); details: cited from earlier work; for Ki: read-out: Ki
[3] = rats; centrally mediated; Baumann, Rothman et al. 2001; cited from earlier work
human OPRM [4] = target: T1, human OPRM (Homo sapiens, UniProt P35372); type: cell-based; set-up: host or cells: CHO-K1
OPRK [5] = target: T2, OPRK (Homo sapiens, UniProt P41145); test: biochemical; type: binding; set-up: expressed in transfected cells; host or cells: CHO-K1; details: [3H]-U69,593 Binding; This work
OPRK [6] = target: T2, OPRK; test: Bias quantification G-protein/Beta-arrestin2; set-up: expressed in transfected cells; host or cells: CHO-K1
Protocol: Coupling efficiency (e-coupling) values indicated the relationship between the apparent binding affinity Ki versus the apparent functional potency EC50 of a given agonist ligand and used the equation pKi-pEC50. […] For inhibitory ligands, e-signal was calculated using maximal level of inhibition (Imax) normalized from 0 (basal, buffer) to 1 (agonist without inhibitor). Bias-coupling (quantification of pathway bias) was evaluated by subtracting the EC50 or the Ke issued from the G-protein pathway assays by those issued from β-arrestin pathway assays for a given ligand and in a linear (nM) scale. Bias-efficacy in favor of the G-protein pathway was evaluated by dividing the functional activation and the functional inhibition maximum responses (e-signal) from the G-protein pathway by the beta-arrestin pathway assays for a given ligand.

human OPRM [7] = target: T1, human OPRM; test: biochemical; type: binding; set-up: expressed in transfected cells; host or cells: CHO-K1 (cell line provided by Dr. Toll, Torrey Pines Institute); membranes prepared in house
human OPRM [8] = target: T1, human OPRM; test: biochemical; set-up: expressed in transfected cells; host or cells: CHO-K1 (cell line provided by Dr. Toll, Torrey Pines Institute); membranes prepared in house

T1 sequence (P35372 whole entry): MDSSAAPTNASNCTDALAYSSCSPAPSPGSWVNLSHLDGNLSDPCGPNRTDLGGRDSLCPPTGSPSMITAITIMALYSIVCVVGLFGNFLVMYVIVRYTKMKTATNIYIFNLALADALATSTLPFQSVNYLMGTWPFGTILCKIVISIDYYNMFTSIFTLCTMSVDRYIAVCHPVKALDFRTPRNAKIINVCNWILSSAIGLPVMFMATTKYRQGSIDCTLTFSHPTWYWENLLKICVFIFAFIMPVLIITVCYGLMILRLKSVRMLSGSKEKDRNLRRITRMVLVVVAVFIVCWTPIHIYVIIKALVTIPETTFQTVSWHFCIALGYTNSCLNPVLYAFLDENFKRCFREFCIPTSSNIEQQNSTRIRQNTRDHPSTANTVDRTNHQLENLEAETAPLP
T2 sequence (P41145 whole entry): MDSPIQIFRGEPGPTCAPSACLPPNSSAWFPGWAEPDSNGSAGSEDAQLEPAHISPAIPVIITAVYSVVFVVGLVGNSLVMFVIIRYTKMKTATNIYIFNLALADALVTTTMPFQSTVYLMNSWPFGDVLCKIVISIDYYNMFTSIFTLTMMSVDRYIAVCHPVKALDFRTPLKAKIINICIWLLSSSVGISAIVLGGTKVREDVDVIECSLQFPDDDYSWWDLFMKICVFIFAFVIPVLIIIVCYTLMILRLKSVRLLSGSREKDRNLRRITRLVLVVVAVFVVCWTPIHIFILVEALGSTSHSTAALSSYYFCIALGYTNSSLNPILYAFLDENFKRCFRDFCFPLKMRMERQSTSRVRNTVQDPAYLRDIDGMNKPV
calf OPRM, sequence (P79350 whole entry): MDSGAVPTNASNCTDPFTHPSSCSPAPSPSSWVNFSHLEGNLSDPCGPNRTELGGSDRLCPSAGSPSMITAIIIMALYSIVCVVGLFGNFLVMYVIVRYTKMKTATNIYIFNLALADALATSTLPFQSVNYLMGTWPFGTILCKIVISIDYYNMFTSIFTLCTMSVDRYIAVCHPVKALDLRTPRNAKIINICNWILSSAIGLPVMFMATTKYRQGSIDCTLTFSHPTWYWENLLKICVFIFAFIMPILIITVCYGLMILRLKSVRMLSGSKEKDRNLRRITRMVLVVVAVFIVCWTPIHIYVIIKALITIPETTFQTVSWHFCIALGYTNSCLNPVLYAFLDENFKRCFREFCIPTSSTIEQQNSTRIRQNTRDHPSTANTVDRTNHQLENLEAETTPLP

## CC[C@H]1CC2C[C@H]3c4[nH]c5ccc(O)cc5c4CCN(C2)C13 [Noribogaine, noribogaine]
[1]
  analgesic effect in the cold pressor test: no analgesic effect
[2]; 120 mg noribogaine
  withdrawal symptoms (COWS, OOWS, SOWS), first six hours after dosing: fewer withdrawal symptoms than the other patients
[2]; single 120 mg dose
  average time to resumption of opioids (OST): greater than 20 hours
Calf OPRM; calf OPRM
  Ki: 1.52 µM
Calf OPRM; calf receptor, literature
  pKi: 5.6
  Ki: 2.66 µM
[3]
  release of prolactin: triggered the release of prolactin
Human OPRM [4]
  Efficacy: 3%
  Efficacy (inhibition): −100~ %
  agonism of β-Arrestin-2 recruitment at OPRM: not an agonist at OPRM
  e-coupling (pKi-pKe): ~1.10
  inhibition of agonist response: 60-100%
  pEC50: 5.9
OPRK [5]
  pKi: 6.1
OPRK [6]
  efficacy bias relative to 6′GNTI: 2.4 ×
OPRK [6]; Activation
  Bias-coupling, Bias G-protein/Beta-arrestin2: 32
  Bias-efficacy, Bias G-protein/Beta-arrestin2: 0.59
OPRK [6]; Inhibition
  Bias-coupling, Bias G-protein/Beta-arrestin2: 144
  Bias-efficacy, Bias G-protein/Beta-arrestin2: −0.35
Human OPRM [7]
  pKi: 5.8
Human OPRM [8]
  Efficacy (Emax): 9.4%
  Efficacy (inhibition): −100~ %
  e-coupling (pKi-pEC50): 1.02
  e-coupling (pKi-pKe): 1.10
  pEC50: 4.8
  right-shift of EC50 of DAMGO and morphine: ~1 log
Human OPRM [8]; Ke
  Ki: 19 µM and 28 µM
Human OPRM [8]; read-out: Efficacy (Emax)
  Emax: 10%
